Patent US20120121680A1, “ANIMAL REPELLING DEICER” (NORTH AMERICAN SALT COMPANY, priority 2010, published 2012)

Test system: whitetail deer
Experiment: Free-choice consumption of repellent-adulterated salt by salt-deprived deer
Type: in vivo
Conditions: mean per 48-hour provision, dry matter basis
Experimental: The products evaluated were three classes of commercially available, non-lethal repellents. Products that repel deer based on taste modification, chemical irritation and fear were evaluated. One gram of water was used to blend the dry repellents with loose salt in a V-mixer (tumble mixer). Liquid repellents were added directly to salt and blended using the V-mixer. After blending, the adulterated salt was weighed into labeled, channel-lock bags, sealed, and stored for eventual delivery to the test farm.
Testing was carried out at the farm of a whitetail deer farmer located in Indiana. The testing was carried out by both the farmer and a veterinarian. Approximately twelve deer that ranged in age from 1.5 to 3 years were used in the study. The deer appeared to be healthy at the beginning of the study and maintained satisfactory health during the completion of the study. Signs consistent with clinical disease were not observed, and medical treatments were not administered to any of the deer. The deer were divided into two groups and housed in two separate grass paddocks. Each paddock housed approximately six deer. The size of the paddocks was about 250 ft.×100 ft.
The deer used in the study were fed a diet that was devoid of supplemental salt. Feed was provided in plastic feeders on the ground and inside a wooden, three-sided feeding station that was constructed by the farm owner. Feeding stations were present in both paddocks. Salt was provided free-choice in shallow, black rubber pans, and the pans were housed in a raised, wooden trough that was mounted on the wall of the feeding station. Water was provided to the deer in round plastic containers located within the paddocks. Water and feed were provided to the deer by the farm owner.
Prior to initiation of the study, the salt-free diet and free-choice, unadulterated salt were provided to the deer for a period of one-week to permit acclimation to the feeding regimen. After initiation of the study, access to salt was restricted in an attempt to impose a state of salt deprivation in the deer. Free-choice, unadulterated salt was removed, and the deer were fed the diet deficient in salt for a period of 48 hours to induce salt deprivation. After 48 hours, free-choice salt containing the different repellents was provided. After 48 hours, salt containing the repellents was removed, and another 48-hour period of salt deprivation was imposed followed by provision of adulterated salt for another 48-hour period. The regimen of 48 hours of adulterated salt provision, 48 hours of salt deprivation was used throughout the study and constituted an experimental replication. A total of eight replications were completed for the chemical irritation and fear class of repellents. A total of seven replications were completed for the taste class of repellents.
The pans containing adulterated salt were randomly arranged in the raised, wooden trough on each replication to prevent the deer from becoming habituated to the placement of repellents in a particular position in the trough. A one-week period of access to unadulterated salt was permitted after the final replication of the respective classes of repellents was completed. The experimental period for each class of repellents varied between 28 and 32 days.
Absolute dry matter of unadulterated salt was determined by drying 1 gram samples in a 212° F. (100° C.) oven for a period of 24 hours. Dry matter of unadulterated salt was determined to be 99.8%. After collection of adulterated and unadulterated salt from the feeding stations, the salt was transferred to aluminum pans and dried in a 131° F. (55° C.) oven for 48 hours to determine physiologic dry matter.
Salt consumption was determined by calculating the difference between salt provided and salt collected after 48 hours. The data was converted to, and expressed on, a dry matter basis.
Consumption data for the two paddocks was merged for analysis. […]

[1] = taste repellents in free salt at Table 1 inclusion rates, seven replications

Molecule | Consumed [1] [g] | other results
Acid casein | 8.21 | –
[Cl-].[Li+] [Lithium Chloride, Lithium chloride] | – | Consumed (chemical irritation repellent, 0.38% by weight in salt, eight replications): 7.06 g
COc1cc(CNC(=O)CCCC/C=C/C(C)C)ccc1O [Capsaicin] | – | Consumed (chemical irritation repellent, 0.007% by weight in salt, eight replications): 8.81 g; Consumed (chemical irritation repellent, 0.07% by weight in salt, eight replications): 9.38 g
Rennet casein | 10.43 | –
Sodium caseinate | 7.62 | –
CC[N+](CC)(CC(=O)Nc1c(C)cccc1C)Cc1ccccc1 [Bitrex, Denatonium benzoate] | 8.29 | –
